Patent US5972953A, “Brain cell protective agent” (priority 1993, dated 1999)

test system: cultured nerve cells (cerebral cortex); test: cells; type: cell-based, Wistar rat; settings: Rattus norvegicus, Cerebral cortex neuron, 24 h, read-out: ED50

Compared with `CN(C(=O)/C=C/c1cccc(F)c1)[C@@H]1CC[C@@]2(O)[C@H]3Cc4ccc(O)c5c4[C@@]2(CCN3CC2CC2)[C@H]1O5` [Compound 79, 17-cyclopropylmethyl-3,14β-dihydroxy-4,5α-epoxy-6β-(N-methyl-3-fluorocinnamamido)morphinan], `CN(C(=O)/C=C/c1cccc(OC(F)(F)F)c1)[C@@H]1CC[C@@]2(O)[C@H]3Cc4ccc(O)c5c4[C@@]2(CCN3CC2CC2)[C@H]1O5` [Compound 120, 17-cyclopropylmethyl-3,14β-dihydroxy-4,5α-epoxy-6β-(N-methyl-3-trifluoromethoxycinnamamido)morphinan] is 12-fold lower in EC50: 12.2 µM for the first, 1.06 µM for the second.

Compound `CC(=O)Oc1ccc2c3c1O[C@H]1[C@H](N(C)C(=O)/C=C/c4ccccc4)CC[C@@]4(O)[C@@H](C2)N(CC2CC2)CC[C@]314` [Compound 114, 17-cyclopropylmethyl-3-acetoxy-14β-hydroxy-4,5α-epoxy-6β-(N-methylcinnamamido)morphinan] has an EC50 of 60.3 µM.

same assay, conditions: Rattus norvegicus, Cerebral cortex neuron; 10 mM glutamate, 24 hours at 37° C., LDH leakage; read-out: ED50 (the source's name)

Going from `O=C(CCCCCc1ccccc1)N(CCCCc1ccccc1)[C@@H]1CC[C@@]2(O)[C@H]3Cc4ccc(O)c5c4[C@@]2(CCN3CC2CC2)[C@H]1O5` [Compound 73, 17-cyclopropylmethyl-3,14β-dihydroxy-4,5α-epoxy-6β-[N-(4-phenylbutyl)-6-phenylhexanoamido)morphinan] to `O=C(CCCCCc1ccccc1)N(CC(c1ccccc1)c1ccccc1)[C@@H]1CC[C@@]2(O)[C@H]3Cc4ccc(O)c5c4[C@@]2(CCN3CC2CC2)[C@H]1O5` [Compound 74, 17-cyclopropylmethyl-3,14β-dihydroxy-4,5α-epoxy-6β-[N-(2,2-diphenylethyl)-6-phenylhexanoamido)morphinan], the EC50 rises from 0.14 µM to 0.22 µM (1.6-fold).

Compared with `CCC/C=C/C(=O)N(C)[C@@H]1CC[C@@]2(O)[C@H]3Cc4ccc(O)c5c4[C@@]2(CCN3CC2CC2)[C@H]1O5` [Compound 75, 17-cyclopropylmethyl-3,14β-dihydroxy-4,5α-epoxy-6β-(N-methyl-trans-2-hexenoamido)morphinan], `COCCOC(=O)N(C)[C@H]1CC[C@@]2(O)[C@H]3Cc4ccc(O)c5c4[C@@]2(CCN3CC2CC2)[C@H]1O5` [Compound 100, 17-cyclopropylmethyl-3,14β-dihydroxy-4,5α-epoxy-6α-(N-methyl-2-methoxyethoxycarbamido)morphinan] is 2.4-fold higher in EC50: 16.5 µM for the first, 38.8 µM for the second.

`CN(C(=O)/C=C/c1ccccc1)[C@@H]1CC[C@@]2(O)[C@H]3Cc4ccc(O)c5c4[C@@]2(CCN3CC2CC2)[C@H]1O5` [Compound 76, 17-cyclopropylmethyl-3,14β-dihydroxy-4,5α-epoxy-6β-(N-methylcinnamamido)morphinan] and `CC(=O)O[C@@]12CC[C@@H](N(C)C(=O)/C=C/c3ccccc3)[C@@H]3Oc4c(O)ccc5c4[C@@]31CCN(CC1CC1)[C@@H]2C5` [Compound 115, 17-cyclopropylmethyl-3-hydroxy-14β-acetoxy-4,5α-epoxy-6β-(N-methylcinnamamido)morphinan] are within 1.5-fold of each other in EC50: 6.79 µM for the first, 5.41 µM for the second.

Going from `CN(C(=O)CC(=O)c1ccccc1)[C@@H]1CC[C@@]2(O)[C@H]3Cc4ccc(O)c5c4[C@@]2(CCN3CC2CC2)[C@H]1O5` [Compound 80, 17-cyclopropylmethyl-3,14β-dihydroxy-4,5α-epoxy-6β-(N-methylbenzoylacetoamido) morphinan] to `CN(C(=O)NCc1ccccc1)[C@H]1CC[C@@]2(O)[C@H]3Cc4ccc(O)c5c4[C@@]2(CCN3CC2CC2)[C@H]1O5` [Compound 104, 17-Cyclopropylmethyl-3,14β-dihydroxy-4,5α-epoxy-6α-(N-methyl-N'-benzylureido)morphinan], the EC50 falls from 7.39 µM to 0.58 µM (13-fold). The second is the more potent here.

Compared with `CN(C(=O)Cc1ccc2ccccc2c1)[C@@H]1CC[C@@]2(O)[C@H]3Cc4ccc(O)c5c4[C@@]2(CCN3CC2CC2)[C@H]1O5` [Compound 83, 17-cyclopropylmethyl-3,14β-dihydroxy-4,5α-epoxy-6β-(N-methyl-2-naphthylacetoamido)morphinan], `CN(C(=O)Cc1cccc2ccccc12)[C@@H]1CC[C@@]2(O)[C@H]3Cc4ccc(O)c5c4[C@@]2(CCN3CC2CC2)[C@H]1O5` [Compound 86, 17-cyclopropylmethyl-3,14β-dihydroxy-4,5α-epoxy-6β-(N-methyl-1-naphthylacetoamido)morphinan] is 1.6-fold higher in EC50: 4.69 µM for the first, 7.36 µM for the second.

First: CN(C(=O)Cc1cccc(Cl)c1)[C@@H]1CC[C@@]2(O)[C@H]3Cc4ccc(O)c5c4[C@@]2(CCN3CC2CC2)[C@H]1O5 [Compound 85, 17-cyclopropylmethyl-3,14β-dihydroxy-4,5α-epoxy-6β-(N-methyl-3-chlorophenylacetoamido) morphinan]
Second: CN(C(=O)Cc1csc2ccccc12)[C@@H]1CC[C@@]2(O)[C@H]3Cc4ccc(O)c5c4[C@@]2(CCN3CC2CC2)[C@H]1O5 [Compound 87, 17-cyclopropylmethyl-3,14β-dihydroxy-4,5α-epoxy-6β-(N-methyl-3-benzo[b]thienylacetoamrido)morphinan]
The EC50 of the first is 2-fold higher: 4.22 µM for the first, 2.15 µM for the second. The second is the more potent here.

First: CN(C(=O)C1c2ccccc2-c2ccccc21)[C@@H]1CC[C@@]2(O)[C@H]3Cc4ccc(O)c5c4[C@@]2(CCN3CC2CC2)[C@H]1O5 [Compound 88, 17-cyclopropylmethyl-3,14β-dihydroxy-4,5α-epoxy-6β-(N-methyl-9-fluorenylamido) morphinan]
Second: CN(C(=O)OCc1ccccc1)[C@H]1CC[C@@]2(O)[C@H]3Cc4ccc(O)c5c4[C@@]2(CCN3CC2CC2)[C@H]1O5 [Compound 99, 17-cyclopropylmethyl-3,14β-dihydroxy-4,5α-epoxy-6α-(N-methylbenzyloxycarbamido)morphinan]
The EC50 of the first is 12-fold higher: 4.64 µM for the first, 0.4 µM for the second. The second is the more potent here.

Compared with `CN(C(=O)Cc1c(F)c(F)c(F)c(F)c1F)[C@@H]1CC[C@@]2(O)[C@H]3Cc4ccc(O)c5c4[C@@]2(CCN3CC2CC2)[C@H]1O5` [Compound 89, 17-cyclopropylmethyl-3,14β-dihydroxy-4,5α-epoxy-6β-(N-methyl-2,3,4,5,6-pentafluorophenylacetoamido)morphinan], `CN(C(=O)Nc1ccc(Cl)c(Cl)c1)[C@H]1CC[C@@]2(O)[C@H]3Cc4ccc(O)c5c4[C@@]2(CCN3CC2CC2)[C@H]1O5` [Compound 103, 17-Cyclopropylmethyl-3,14β-dihydroxy-4,5α-epoxy-6α-[N-methyl-N'-(3,4-dichlorophenyl)ureido]morphinan] is 12-fold lower in EC50: 6.28 µM for the first, 0.54 µM for the second.

Going from `CN(C(=O)C#Cc1cccc(C(F)(F)F)c1)[C@@H]1CC[C@@]2(O)[C@H]3Cc4ccc(O)c5c4[C@@]2(CCN3CC2CC2)[C@H]1O5` [Compound 90, 17-Cyclopropylmethyl-3,14β-dihydroxy-4,5α-epoxy-6β-[N-methyl-3-(3-trifluoromethylphenyl)propiolamido]morphinan] to `CN(C(=O)/C=C/c1cccc(N=C=S)c1)[C@@H]1CC[C@@]2(O)[C@H]3Cc4ccc(O)c5c4[C@@]2(CCN3CC2CC2)[C@H]1O5` [Compound 117, 17-cyclopropylmethyl-3,14β-dihydroxy-4,5α-epoxy-6β-(N-methyl-3-isothiocyanatocinnamamido)morphinan], the EC50 rises from 4.37 µM to 9.57 µM (2.2-fold). The first is the more potent here.

Going from `C=CCN1CC[C@]23c4c5ccc(O)c4O[C@H]2[C@H](N(C)C(=O)Cc2ccc(Cl)c(Cl)c2)CC[C@@]3(O)[C@H]1C5` [Compound 93, 17-allyl-3,14β-dihydroxy-4,5α-epoxy-6β-(N-methyl-3,4-dichlorophenylacetoamido)morphinan] to `CN([C@H]1CC[C@@]2(O)[C@H]3Cc4ccc(O)c5c4[C@@]2(CCN3CC2CC2)[C@H]1O5)S(=O)(=O)Cc1ccc(Cl)c(Cl)c1` [Compound 111, 17-cyclopropylmethyl-3,14β-dihydroxy-4,5α-epoxy-6α-(N-methyl-3,4-dichlorophenylmethanesulfonamido) morphinan], the EC50 falls from 1.5 µM to 0.54 µM (2.8-fold). The second is the more potent here.

First: CN(Cc1ccccc1)[C@H]1CC[C@@]2(O)[C@H]3Cc4ccc(O)c5c4[C@@]2(CCN3CC2CC2)[C@H]1O5 [Compound 95, 17-cyclopropylmethyl-3,14β-dihydroxy-4,5α-epoxy-6α-(N-methylbenzylamino)morphinan]
Second: CN([C@H]1CC[C@@]2(O)[C@H]3Cc4ccc(O)c5c4[C@@]2(CCN3CC2CC2)[C@H]1O5)S(=O)(=O)Cc1ccccc1 [Compound 112, 17-cyclopropylmethyl-3,14β-dihydroxy-4,5α-epoxy-6α-(N-methyl-phenylmethanesulfonamido)morphinan]
The EC50 of the first is 2.6-fold lower: 0.56 µM for the first, 1.45 µM for the second. The first is the more potent here.

`CC(C)CN(CCCCCCc1ccccc1)[C@H]1CC[C@@]2(O)[C@H]3Cc4ccc(O)c5c4[C@@]2(CCN3CC2CC2)[C@H]1O5` [Compound 97, 17-cyclopropylmethyl-3,14β-dihydroxy-4,5α-epoxy-6α-(N-isobutyl-6-phenylhexylamino)morphinan] and `CC(C)CN(CCCCCCc1ccccc1)[C@@H]1CC[C@@]2(O)[C@H]3Cc4ccc(O)c5c4[C@@]2(CCN3CC2CC2)[C@H]1O5` [Compound 98, 17-cyclopropylmethyl-3,14β-dihydroxy-4,5α-epoxy-6β-(N-isobutyl-6-phenylhexylamino)morphinan] are the same in EC50: 0.16 µM for the first, 0.16 µM for the second.

Going from `CN(C(=S)NCc1ccccc1)[C@H]1CC[C@@]2(O)[C@H]3Cc4ccc(O)c5c4[C@@]2(CCN3CC2CC2)[C@H]1O5` [Compound 105, 17-cyclopropylmethyl-3,14β-dihydroxy-4,5α-epoxy-6α-(N-methyl-N'-benzylthioureido)morphinan] to `CN(C(=S)NCc1ccccc1)[C@@H]1CC[C@@]2(O)[C@H]3Cc4ccc(O)c5c4[C@@]2(CCN3CC2CC2)[C@H]1O5` [Compound 106, 17-cyclopropylmethyl-3,14β-dihydroxy-4,5α-epoxy-6β-(N-methyl-N'-benzylthioureido)morphinan], the EC50 falls from 20.7 µM to 10.9 µM (1.9-fold).

Compound `O=C(CCc1ccccc1)O[C@H]1CC[C@@]2(O)[C@H]3Cc4ccc(O)c5c4[C@@]2(CCN3CC2CC2)[C@H]1O5` [Compound 113, 17-cyclopropylmethyl-3,14β-dihydroxy-4,5α-epoxy-6α-(3-phenylpropionyloxy)morphinanan] has an EC50 of 0.53 µM.
